Reference: PMC7345905, “Microbial Metabolite Urolithin B Inhibits Recombinant Human Monoamine Oxidase A Enzyme” (Metabolites, 2020)
Where “and” joins values, the source holds several entries; their conditions need not be identical. Identical values can stand only once.

What was measured:
[1] = target: T1, human recombinant MAO-A (Homo sapiens, UniProt P21397); assay: MAO-A inhibition kinetics (variable substrate, Lineweaver–Burk plot); assay type: biochemical; parameters: Michaelis-Menten best-fit Vmax of MAO-A / Michaelis-Menten best-fit Vmax of MAO-A, Average: unit not given here; settings: for MAO-A assay signal (luminescence) / Transformed (reciprocal of MAO-A assay signal) / Michaelis-Menten best-fit Vmax of MAO-A: N=1-3
T1 construct: purchased Sigma-Aldrich
T1 sequence (P21397 1-527): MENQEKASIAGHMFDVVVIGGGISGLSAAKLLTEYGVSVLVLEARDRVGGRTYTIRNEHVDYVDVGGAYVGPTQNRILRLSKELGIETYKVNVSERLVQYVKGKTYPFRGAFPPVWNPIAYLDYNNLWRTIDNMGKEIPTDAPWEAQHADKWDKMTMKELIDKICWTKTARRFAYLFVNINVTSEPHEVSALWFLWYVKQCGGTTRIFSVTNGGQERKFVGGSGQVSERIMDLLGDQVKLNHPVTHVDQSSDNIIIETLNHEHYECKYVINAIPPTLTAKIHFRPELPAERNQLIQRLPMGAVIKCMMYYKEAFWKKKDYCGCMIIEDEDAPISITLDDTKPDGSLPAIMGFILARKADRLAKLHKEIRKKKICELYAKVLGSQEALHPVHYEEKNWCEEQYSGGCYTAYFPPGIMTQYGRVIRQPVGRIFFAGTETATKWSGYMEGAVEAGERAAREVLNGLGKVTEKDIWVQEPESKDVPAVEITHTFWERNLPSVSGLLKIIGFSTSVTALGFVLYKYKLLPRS
Protocol: (§1) MAO inhibition assays were performed using a MAO-Glo™ Assay kit (Promega) according to the manufacturer’s instructions. Briefly, 1 µg of human recombinant MAO-A and MAO-B enzyme isoforms were incubated with 160 and 16 µM of MAO substrates, respectively. […] The enzyme reaction was quenched by the addition of a luciferin detection reagent. […] An equal volume of dimethyl sulfoxide (0.1%) was added to the enzyme assay as a control. After 1 h of incubation, the luminescence was measured with a multimode microplate reader (Synergy HT, BioTek, Winooski, VT, USA) to determine the MAO enzyme activities. Initially, the inhibition potential of all the test compounds was evaluated at a concentration of 100 μM. The control reaction (with no inhibitor) with vehicle (DMSO 0.1%) was set at 100% activity. To determine IC50 of the test compounds, the dose dependent enzyme assays were performed. We used range of 0.1 to 50 μM concentrations for MAO-A and 0.1 to 200 μM concentrations of test compounds for the MAO-B enzyme activities. The type of enzyme inhibition was determined using variable concentrations of MAO-A substrate (10–360 µM) and MAO-B substrate (2–64 µM) for the respective enzyme assay. […] A Lineweaver–Burk double reciprocal plot was generated, and the mode of inhibition was determined by visual examination of the plot. The slope of the reciprocal plots was plotted against the inhibitor concentrations and determined the x-axis intercept that represented the inhibitor constant, Ki value.
All experiments were performed in triplicates and data are presented as mean ± standard error of the mean (SEM). The raw data are provided in Supplementary Data, Table S1. Enzyme kinetic data were analyzed using the Lineweaver–Burk plot. Statistical analysis was performed by Student’s t-test using GraphPad Prism Ver. 7.0 (GraphPad Prism Software Inc., San Diego, CA, USA).

[2] = target: T1, human recombinant MAO-A; assay: MAO-Glo MAO-A inhibition assay; assay type: biochemical; settings: for MAO-A enzyme assay, Percent of control: N=1-3, listed as UroA
Protocol: as §1

[3] = UroA 3 µM, MAO-A substrate 10 uM
[4] = UroA 3 µM, MAO-A substrate 20 uM
[5] = UroA 3 µM, MAO-A substrate 40 uM
[6] = UroA 3 µM, MAO-A substrate 80 uM
[7] = UroA 3 µM, MAO-A substrate 160 uM
[8] = UroA 3 µM, MAO-A substrate 320 uM
[9] = UroA 12 µM, MAO-A substrate 10 uM
[10] = UroA 12 µM, MAO-A substrate 20 uM
[11] = UroA 12 µM, MAO-A substrate 40 uM
[12] = UroA 12 µM, MAO-A substrate 80 uM
[13] = UroA 12 µM, MAO-A substrate 160 uM

O=c1oc2cc(O)ccc2c2ccc(O)cc12 [UA, urolithin-A]
mode of inhibition of MAO-A ([1]; Lineweaver–Burk plot): mixed mode of inhibition
MAO-A assay signal (luminescence), Average [1, 3]: 962.333
MAO-A assay signal (luminescence) [1, 3]: 1018 and 920 and 949
MAO-A assay signal (luminescence), Average [1, 4]: 1760.33
MAO-A assay signal (luminescence) [1, 4]: 1739 and 1707 and 1835
MAO-A assay signal (luminescence), Average [1, 5]: 3218.67
MAO-A assay signal (luminescence) [1, 5]: 3261 and 3188 and 3207
MAO-A assay signal (luminescence), Average [1, 6]: 6181.33
MAO-A assay signal (luminescence) [1, 6]: 6231 and 6107 and 6206
MAO-A assay signal (luminescence), Average [1, 7]: 11480.7
MAO-A assay signal (luminescence) [1, 7]: 11583 and 11575 and 11284
MAO-A assay signal (luminescence), Average [1, 8]: 20098
MAO-A assay signal (luminescence) [1, 8]: 20331 and 20247 and 19716
Transformed (reciprocal of MAO-A assay signal), Average ([1]; UroA 3 µM, [1/S] 0.003125): 4.976e-5
Transformed (reciprocal of MAO-A assay signal) ([1]; UroA 3 µM, [1/S] 0.003125): 4.9186e-5 and 4.939e-5 and 5.072e-5
Transformed (reciprocal of MAO-A assay signal), Average ([1]; UroA 3 µM, [1/S] 0.00625): 8.7103e-5
Transformed (reciprocal of MAO-A assay signal) ([1]; UroA 3 µM, [1/S] 0.00625): 8.633e-5 and 8.639e-5 and 8.862e-5
Transformed (reciprocal of MAO-A assay signal), Average ([1]; UroA 3 µM, [1/S] 0.0125): 0.0001618
Transformed (reciprocal of MAO-A assay signal) ([1]; UroA 3 µM, [1/S] 0.0125): 0.0001605 and 0.0001637 and 0.0001611
Transformed (reciprocal of MAO-A assay signal), Average ([1]; UroA 3 µM, [1/S] 0.025): 0.0003107
Transformed (reciprocal of MAO-A assay signal) ([1]; UroA 3 µM, [1/S] 0.025): 0.0003067 and 0.0003137 and 0.0003118
Transformed (reciprocal of MAO-A assay signal), Average ([1]; UroA 3 µM, [1/S] 0.05): 0.0005681
Transformed (reciprocal of MAO-A assay signal) ([1]; UroA 3 µM, [1/S] 0.05): 0.000575 and 0.0005858 and 0.000545
Transformed (reciprocal of MAO-A assay signal), Average ([1]; UroA 3 µM, [1/S] 0.1): 0.001039
Transformed (reciprocal of MAO-A assay signal) ([1]; UroA 3 µM, [1/S] 0.1): 0.0009823 and 0.001087 and 0.001054
MAO-A assay signal (luminescence), Average [1, 9]: 978.667
MAO-A assay signal (luminescence) [1, 9]: 993 and 1030 and 913
MAO-A assay signal (luminescence), Average [1, 10]: 1695.33
MAO-A assay signal (luminescence) [1, 10]: 1731 and 1673 and 1682
MAO-A assay signal (luminescence), Average [1, 11]: 3058.33
MAO-A assay signal (luminescence) [1, 11]: 3191 and 2983 and 3001
MAO-A assay signal (luminescence), Average [1, 12]: 5849.33
MAO-A assay signal (luminescence) [1, 12]: 5814 and 5864 and 5870
MAO-A assay signal (luminescence), Average [1, 13]: 10871
MAO-A assay signal (luminescence) [1, 13]: 10945 and 10745 and 10923
MAO-A assay signal (luminescence), Average ([1]; UroA 12 µM, MAO-A substrate 320 uM): 12941.7
Transformed (reciprocal of MAO-A assay signal), Average ([1]; UroA 12 µM, [1/S] 0.003125): 7.727e-5
Transformed (reciprocal of MAO-A assay signal) ([1]; UroA 12 µM, [1/S] 0.003125): 8.026e-5 and 7.7238e-5 and 7.452e-5
Transformed (reciprocal of MAO-A assay signal), Average ([1]; UroA 12 µM, [1/S] 0.00625): 9.199e-5
Transformed (reciprocal of MAO-A assay signal) ([1]; UroA 12 µM, [1/S] 0.00625): 9.137e-5 and 9.307e-5 and 9.155e-5
Transformed (reciprocal of MAO-A assay signal), Average ([1]; UroA 12 µM, [1/S] 0.0125): 0.000171
Transformed (reciprocal of MAO-A assay signal) ([1]; UroA 12 µM, [1/S] 0.0125): 0.000172 and 0.0001705 and 0.0001704
Transformed (reciprocal of MAO-A assay signal), Average ([1]; UroA 12 µM, [1/S] 0.025): 0.000327
Transformed (reciprocal of MAO-A assay signal) ([1]; UroA 12 µM, [1/S] 0.025): 0.0003134 and 0.0003352 and 0.0003332
Transformed (reciprocal of MAO-A assay signal), Average ([1]; UroA 12 µM, [1/S] 0.05): 0.0005899
Transformed (reciprocal of MAO-A assay signal) ([1]; UroA 12 µM, [1/S] 0.05): 0.0005777 and 0.0005977 and 0.0005945
Transformed (reciprocal of MAO-A assay signal), Average ([1]; UroA 12 µM, [1/S] 0.1): 0.001022
Transformed (reciprocal of MAO-A assay signal) ([1]; UroA 12 µM, [1/S] 0.1): 0.001007 and 0.0009709 and 0.001095
Michaelis-Menten best-fit Vmax of MAO-A, Average ([1]; in presence of UroA 3 uM): 79114.7
Michaelis-Menten best-fit Vmax of MAO-A ([1]; in presence of UroA 3 uM): 80970 and 83529 and 72845
Michaelis-Menten best-fit Vmax of MAO-A, Average ([1]; in presence of UroA 12 uM): 65883.7
Michaelis-Menten best-fit Vmax of MAO-A ([1]; in presence of UroA 12 uM): 75205 and 61786 and 60660
Ki ([1]; x-axis intercept of slopes of Lineweaver–Burk plots vs inhibitor concentration): 10 µM
IC50 ([2]; 0–50 μM range, 160 µM substrate, 37 °C, 1 h, read-out: IC50 for MAO-A inhibitory activity): 5.88 ± 0.69 µM
MAO-A enzyme assay, Percent of control ([2]; 0.1 µM): 103.587% of control and 97.8592% of control and 101.542% of control
MAO-A enzyme assay, Percent of control ([2]; 0.5 µM): 95.9845% of control and 94.0414% of control and 95.8492% of control
MAO-A enzyme assay, Percent of control ([2]; 1 µM): 62.4789% of control and 79.8224% of control and 85.3157% of control
MAO-A enzyme assay, Percent of control ([2]; 5 µM): 59.251% of control and 60.0082% of control and 51.3175% of control
MAO-A enzyme assay, Percent of control ([2]; 10 µM): 48.1185% of control and 46.1024% of control and 43.7898% of control
MAO-A enzyme assay, Percent of control ([2]; 25 µM): 24.6659% of control and 27.2749% of control and 27.3403% of control
MAO-A enzyme assay, Percent of control ([2]; 50 µM): 13.9758% of control and 16.0253% of control and 16.3887% of control
MAO-A enzyme assay, Percent of control ([2]; 100 µM (Figure 1A), 100 µM): 13.2811% of control and 14.5442% of control and 14.4558% of control
inhibition of MAO-A enzyme activity ([2]; 100 µM, compared to vehicle): 86%
